What all share (assay): growth of human tumour cells (NCI), 48 h
For assay [1], the system named is HCT-15 colon.
Assay [2] concerns A498 renal.
Assay [3] has as its system CCRF-CEM leukemia.
The test system of assay [4] is MOLT-4 leukemia.
The subject of assay [5] is RPMI-8226 leukemia.
Assay [6] relates to COLO 205 colon.
For assay [7], the system named is M14 melanoma.
Assay [8] relates to OVCAR-5 ovarian.
Assay [9] has as its system SF-539 CNS.
The subject of assay [10] is ACHN renal.

Where “and” joins values, the source holds several entries; their conditions need not be identical. Equal values may be shown once.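 Following 48 hours of exposure in 96-well plates, responses at five concentrations were used to interpolate endpoints linearly. At the GI50, growth is halved. TGI is the concentration that stops growth completely.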

On to `C=CCN(CC=C)C(=O)c1cc(C)nc2c1c(=O)n(-c1ccccc1)c(=O)n2CC(O)CN1CCN(c2ncccn2)CC1` (stereo not drawn), for which the GI50 in [1], in assay [2], in assay [3], in assay [4], in [5] and in [6] was over 100 µM each time. Moreover, the GI50 in [7], in assay [8], in [9] and in assay [10] was over 100 µM each time. Also, the TGI in assay [1], in assay [2], in assay [3], in assay [4], in assay [5] and in [6] was over 100 µM each time. The TGI in [7], in assay [8], in assay [9] and in assay [10] was over 100 µM in each case.
On to `CC1=C2C[C@H]3[C@@H](CC=C4C[C@@H](O)CC[C@@]43C)[C@@H]2CC[C@]12O[C@@H]1C[C@H](C)CN[C@H]1[C@H]2C`, for which the GI50 in assay [1] was 12.6 µM and 22.3 µM; in [2], 43.2 µM and 19.4 µM; in [3], 22.6 µM and 23.4 µM; in [4], 17.7 µM and 20.5 µM; in [5], 8.84 µM and 18.1 µM; in assay [6], 13.6 µM and 4.28 µM. For the same compound, the GI50 is > 50 µM and 19.6 µM in assay [7]; 11.9 µM and 29.4 µM in assay [8]; 21.3 µM and 20 µM in assay [9]; 10.4 µM and 18.7 µM in assay [10]. Moreover, the TGI in assay [1] is 49.4 µM and > 100 µM; in [2], 50 µM and 37.9 µM; in [3], 50 µM and 80 µM; in [4], 50 µM and 58.6 µM; in [5], 31.8 µM and 46.2 µM; in [6] it was 38.6 µM and 19.1 µM. The TGI in assay [7] was > 50 µM and 44.1 µM; in assay [8], 50 µM and 89.6 µM; in [9], 50 µM and 37.8 µM; in [10], 22.3 µM and 41.4 µM.
In the case of `C1CCN(C2OC3C(COC3N3CCCCC3)OC2OC2CCO[C@@H]2N2CCCCC2)CC1` (stereo partly drawn), the TGI in [1] is over 100 µM; in assay [2], over 100 µM; in [3], 40.4 µM; in assay [4], 84.7 µM; in [5] it was over 100 µM; in [6], over 100 µM. In addition, the TGI in assay [7] is over 100 µM; in [8] it was over 100 µM; in assay [9], 46.8 µM; in assay [10], over 100 µM.
`COc1cc2c(Oc3ccc4[nH]c(C)cc4c3F)ccnc2cc1OCC1(N)CC1`: the GI50 in [1] was 0.854 µM; in assay [2], 2.2 µM; in [3], 1.57 µM; in assay [4], 0.971 µM; in assay [5], 2.1 µM; in [6], 2.29 µM. For the same compound, the GI50 in assay [7] was 1.02 µM; in assay [8] it was 3.37 µM; in [9], 0.315 µM; in assay [10], 2.05 µM. In addition, the TGI in [1] was determined as 13.5 µM; in [2], 19.7 µM; in [3], 12.9 µM; in [4], 14 µM; in [5] it was 5.95 µM; in assay [6] it was 5.61 µM. Moreover, the TGI in assay [7] worked out at 2.53 µM; in assay [8], 10.3 µM; in assay [9], 1.81 µM; in [10] it was 12.5 µM.
In the case of `c1ccc2c(c1)-c1ccccc1C2N1CC2CCC(CC2)C1`, the TGI in [1] came out at 40 µM; in [2], 40.1 µM; in assay [3] it was 35.8 µM; in assay [4], 28.2 µM; in [5] it was 46 µM; in [6], 38.1 µM. The TGI in assay [7] turned out to be 75.4 µM; in [8] it was 37.2 µM; in assay [9], 48.9 µM; in [10] it was 53.4 µM.
For `Cc1cccc(Cl)c1NC(=O)/C=C/c1ccccc1`, the TGI in assay [1], in assay [2], in assay [3], in [4], in [5] and in assay [6] was over 100 µM throughout. The TGI in assay [7], in [8], in assay [9] and in assay [10] was over 100 µM throughout.
Consider `CC(=O)Nc1c(C)ccc2c1C(=O)c1ccccc1C2=O`, for which the TGI in [1], in assay [2], in [3], in assay [4], in assay [5] and in assay [6] was over 100 µM in each case. Besides, the TGI in assay [7], in assay [8], in [9] and in [10] was over 100 µM throughout.
Regarding `Cc1cc(N2CCCC2)nc(NC2CCCC(Nc3ccnc4cc(Cl)ccc34)C2)n1` (stereo not drawn), the GI50 was 1.02 µM in assay [1]; 1.91 µM in [2]; 0.408 µM in assay [3]; 0.478 µM in [4]; 0.322 µM in [5]; 1.46 µM in assay [6]. Also, the GI50 is 1.14 µM in assay [7], 1.45 µM in assay [8], 1.26 µM in [9] and 1.27 µM in [10]. The TGI in [1] was 2.44 µM; in [2], 3.48 µM; in assay [3], 3.37 µM; in [4] it was 3.13 µM; in assay [5] it was 1.4 µM; in assay [6], 3.35 µM. Besides, the TGI was found to be 2.51 µM in assay [7], 4.26 µM in assay [8], 2.62 µM in assay [9] and 2.79 µM in [10].
With `Cc1cccc(C)c1NC(=O)CCc1nnc2s/c(=C\c3ccc(Cl)cc3)c(=O)n12`, the TGI in assay [1] is 36.2 µM; in [2], over 100 µM; in assay [3], over 100 µM; in [4], over 100 µM; in assay [5], over 100 µM; in assay [6] it was over 100 µM. In addition, the TGI in [7], in assay [8], in assay [9] and in assay [10] was over 100 µM each time.
Regarding `O=[N+]([O-])c1ccc(N=Nc2c(O)ccc3ccccc23)cc1`, the TGI in assay [1], in assay [2], in assay [3], in assay [4], in assay [5] and in [6] was over 100 µM throughout. The TGI in assay [7], in [8], in [9] and in [10] was over 100 µM throughout. For the same compound, the GI50 was 28.4 µM and > 100 µM in [3]; 43.6 µM and > 100 µM in assay [7]; 31.3 µM and > 100 µM in assay [10].

Source of the values: PubChem BioAssay (NCI).
